Consider eight compounds from patent US20190225650A1, “PEPTIDOMIMETIC MACROCYCLES AND USE THEREOF IN REGULATING HIF1ALPHA” (AILERON THERAPEUTICS, INC., priority 2013, published 2019).

Bridge positions count the residues as written; N and C are the ends. Square brackets hold non-standard residues; d marks the D form. Peptide text beside a SMILES is read from it. R8 = C=CCCCCCC[C@@](C)(N)C(=O)O; S5 = C=CCCC[C@](C)(N)C(=O)O; Nle = CCCC[C@H](N)C(=O)O Bounds are passed on as bounds.

In test [1] the test system is HRE-bla ME-180 cells. The test is described as follows: Cell proliferation assay (viability, MTT, 1% FBS). The format is cell-based, human. A digest of the protocol:
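ME-180 cells (2×10^4/well) in Opti-MEM with 1% FBS were pretreated 16 h under normoxia (21% O2), vehicle 0.5% DMSO final. Incubation then continued under normoxia or hypoxia (1% O2); viable cells quantified by MTT-type CellTiter 96 assay.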

For test [2], the system named is HRE-bla ME-180 cells. The test is described as follows: Reporter gene assay (HRE-bla ME-180 HIF reporter, GeneBLAzer). Conditions: for EC50: 24 hour normoxia. The format is cell-based, human. A digest of the protocol: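 A FRET β-lactamase readout of HIF transcription was used. After compound treatment in 0.3% DMSO/media under normoxic conditions, 20 μl of 6× LiveBLAzer-FRET B/G (CCF4-AM) substrate was added. Plates sat 3 hr at room temperature in the dark and were read at 409 Ex/460Em and 409Ex/530Em on a Synergy 2. Inhibition was compared against DMSO vehicle controls, with chetomin as positive control.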
For orientation: Reporter assays use an easily measured gene product as a stand-in for the process of interest.

For test [3], the target named is T1, flag-tagged HIF1α (AA 786-826) / His6-tagged p300 (AA 323-423) complex (Homo sapiens, UniProt Q09472).
T1 construct: His6-tagged p300 (AA 323-423); made in house; host or cells: E. coli (pETDuet vector)
The test is described as follows: HIF1α p300 displacement assay (TR FRET, +CHAPS). The format is binding. Conditions: read-out: IC50 (nM) (HIF1α_p300 Displacement + CHAPS). The procedure, abridged:
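The co-expressed flag-HIF1α (786-826)/His6-p300 (323-423) complex, purified from E. coli with 0.1 mM ZnSO4, was used at 300 nM final with competitor peptides for 1 h at room temperature. Buffer was 150 mM NaCl, 20 mM HEPES pH 7.4, 7.5 mM CHAPS and 1 mM DTT. Anti-Flag-K (0.5 μM) and anti-His-D2 (4 nM) were then added for 2 h, and IC50s were fitted from the TR-FRET ratio.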

Regarding `CCCC[C@H](NC(=O)[C@H](CCC(=O)O)NC(=O)[C@]1(C)CCCC=CCCCCCC[C@@](C)(NC(=O)[C@H](C)NC(=O)[C@H](CC(=O)O)NC(=O)[C@@H](NC(=O)[C@H](CC(N)=O)NC(=O)[C@@H](NC(=O)[C@H](CCC(N)=O)NC(=O)[C@]2(C)CCCC=CCCC[C@](C)(NC(=O)[C@H](CC(C)C)NC(=O)[C@H](CCC(=O)O)NC(=O)[C@H](CCC(=O)O)NC(=O)CNC(=O)[C@H](CCC(N)=O)NC(=O)[C@H](CC(C)C)NC(=O)[C@H](CC(C)C)NC(C)=O)C(=O)N[C@@H](CCCNC(=N)N)C(=O)N[C@@H](C)C(=O)N[C@@H](CC(C)C)C(=O)N2)C(C)C)[C@@H](C)CC)C(=O)N[C@@H](C(C)C)C(=O)N[C@@H](CC(C)C)C(=O)N[C@@H](CCCC)C(=O)N[C@@H](CO)C(=O)N[C@@H](CC(C)C)C(=O)N[C@@H](C(C)C)C(=O)N1)C(N)=O` [SP-362] (Ac-LLQGEEL[S5]RAL[S5]QVNIDA[R8]VL[Nle]SLV[S5]E[Nle]-NH2; staple 8-12, 19-26), in test [1], the “Viability 1% FBS AVG (MTT V3-24 hr Normoxia) (μM)” value (shortened to “Viability 1% FBS AVG”) is on record as “++++ (≥30: ++++)”. In test [2], the “18 h Avg % max inhibition at top conc (HIF Rptr-24 hrs normoxia) (μM)” value (from here on “18 h Avg % max inhibition at top conc”) is given as “++++ (≥50: ++++)” and the EC50 – broadly, the concentration needed to bring the measured effect to its halfway point – is 5 to 15 µM. In addition, in test [3], the IC50 (in general, the concentration that gives 50% inhibition) lay within 400 to 700 nM.

As for `CCCC[C@H](NC(=O)[C@H](CCC(=O)O)NC(=O)[C@@H](NC(=O)[C@@H](NC(=O)[C@H](CC(C)C)NC(=O)[C@]1(C)CCCC=CCCC[C@](C)(NC(=O)[C@H](CCC(=O)O)NC(=O)[C@H](CC(=O)O)NC(=O)[C@@H](NC(=O)[C@H](Cc2ccccc2)NC(C)=O)[C@@H](C)O)C(=O)N[C@@H](C(C)C)C(=O)N[C@@H](CC(C)C)C(=O)N[C@@H](CCCC)C(=O)N1)C(C)C)[C@@H](C)CC)C(=O)N[C@@H](C)C(=O)N[C@@H](CC(C)C)C(N)=O` [SP-153] (Ac-FTDE[S5]VL[Nle][S5]LVIE[Nle]AL-NH2; staple 5-9), in test [1], the “Viability 1% FBS AVG” value was “++++ (≥30: ++++)”. In addition, in test [2], the “18 h Avg % max inhibition at top conc” value is “+ (<10: +)” and the EC50 is over 30 µM. Also, the IC50 in test [3] lay in the range of 400 to 700 nM.

With `CCCC[C@H](NC(=O)[C@H](CC(C)C)NC(=O)[C@@H](NC(=O)[C@H](CCC(=O)O)NC(=O)[C@H](CCC(=O)O)NC(=O)[C@H](CC(=O)O)NC(=O)[C@@H](NC(=O)[C@H](CC(N)=O)NC(=O)[C@@H](NC(=O)[C@H](CCC(N)=O)NC(=O)[C@H](CC(=O)O)NC(=O)[C@]1(C)CCCC=CCCC[C@](C)(NC(=O)[C@H](CCC(=O)O)NC(=O)[C@H](CCC(=O)O)NC(=O)CNC(=O)[C@H](CCC(N)=O)NC(=O)[C@H](CC(C)C)NC(=O)[C@H](CC(C)C)NC(C)=O)C(=O)N[C@@H](CC(C)C)C(=O)N[C@@H](CCCNC(=N)N)C(=O)N[C@@H](C)C(=O)N1)C(C)C)[C@@H](C)CC)C(C)C)C(=O)N[C@@]1(C)CCCC=CCCC[C@@](C)(C(=O)N[C@@H](CCCC)C(=O)NCC(N)=O)NC(=O)[C@H]([C@@H](C)CC)NC(=O)[C@H](C(C)C)NC(=O)[C@H](CC(C)C)NC1=O` [SP-339] (Ac-LLQGEE[S5]LRA[S5]DQVNIDEEVL[Nle][S5]LVI[S5][Nle]G-NH2; staple 7-11, 23-27), in test [1], the “Viability 1% FBS AVG” value is “++++ (≥30: ++++)”. Moreover, in test [2], the “18 h Avg % max inhibition at top conc” value was “+ (<10: +)” and the concentration for a half-maximal effect (EC50) is over 30 µM. Besides, in test [3], the IC50 lay within 200 to 400 nM.

Regarding `CCCC[C@H](NC(=O)[C@H](CCC(=O)O)NC(=O)[C@]1(C)CCCC=CCCCCCC[C@@](C)(NC(=O)[C@H](CCC(=O)O)NC(=O)[C@H](CC(=O)O)NC(=O)[C@@H](NC(=O)[C@H](CC(N)=O)NC(=O)[C@@H](NC(=O)[C@H](CCC(N)=O)NC(=O)[C@]2(C)CCCC=CCCC[C@](C)(NC(=O)[C@H](CC(C)C)NC(=O)[C@H](CCC(=O)O)NC(=O)[C@H](CCC(=O)O)NC(=O)[C@H](C)NC(=O)[C@H](CCC(N)=O)NC(=O)[C@H](CC(C)C)NC(=O)[C@H](CC(C)C)NC(C)=O)C(=O)N[C@@H](CCCNC(=N)N)C(=O)N[C@@H](C)C(=O)N[C@@H](CC(C)C)C(=O)N2)C(C)C)[C@@H](C)CC)C(=O)N[C@@H](C(C)C)C(=O)N[C@@H](CC(C)C)C(=O)N[C@@H](CCCC)C(=O)N[C@@H](CO)C(=O)N[C@@H](CC(C)C)C(=O)N[C@@H](C(C)C)C(=O)N1)C(N)=O` [SP-367] (Ac-LLQAEEL[S5]RAL[S5]QVNIDE[R8]VL[Nle]SLV[S5]E[Nle]-NH2; staple 8-12, 19-26), in test [1], the “Viability 1% FBS AVG” value is given as “++++ (≥30: ++++)”. In test [2], the “18 h Avg % max inhibition at top conc” value is recorded as “++++ (≥50: ++++)” and the EC50 is at most 5 µM. For the same compound, the IC50 in test [3] was in the range of 400 to 700 nM.

In the case of `CCCC[C@H](NC(=O)[C@H](CC(C)C)NC(=O)[C@@H](NC(=O)[C@H](CCC(=O)O)NC(=O)[C@H](CCC(=O)O)NC(=O)[C@H](CC(=O)O)NC(=O)[C@@H](NC(=O)[C@H](CC(N)=O)NC(=O)[C@@H](NC(=O)[C@H](CCC(N)=O)NC(=O)[C@H](CC(=O)O)NC(=O)[C@H](CC(C)C)NC(=O)[C@]1(C)CCCC=CCCC[C@](C)(NC(=O)[C@H](CCC(=O)O)NC(=O)CNC(=O)[C@H](CCC(N)=O)NC(=O)[C@H](CC(C)C)NC(=O)[C@H](CC(C)C)NC(C)=O)C(=O)N[C@@H](CC(C)C)C(=O)N[C@@H](CC(C)C)C(=O)N[C@@H](CCCNC(=N)N)C(=O)N1)C(C)C)[C@@H](C)CC)C(C)C)C(=O)N[C@@]1(C)CCCC=CCCC[C@@](C)(C(=O)N[C@@H](CCCC)C(=O)NCC(N)=O)NC(=O)[C@H]([C@@H](C)CC)NC(=O)[C@H](C(C)C)NC(=O)[C@H](CC(C)C)NC1=O` [SP-307] (Ac-LLQGE[S5]LLR[S5]LDQVNIDEEVL[Nle][S5]LVI[S5][Nle]G-NH2; staple 6-10, 23-27), the “Viability 1% FBS AVG” value in test [1] is “++++ (≥30: ++++)”. In test [2], the “18 h Avg % max inhibition at top conc” value is “+++ (≤25 but <50: +++)” and the EC50 was over 30 µM. For the same compound, in test [3], the IC50 is over 700 nM.

As to `CC[C@H](C)[C@H](NC(=O)[C@H](CCCNC(=N)N)NC(=O)[C@H](CC(=O)O)NC(=O)[C@H](CC(C)C)NC(=O)[C@H](C)NC(=O)[C@H](CCSC)NC(=O)[C@]1(C)CCCC=CCCC[C@](C)(NC(=O)[C@H](CCSC)NC(=O)[C@H](CC(C)C)NC(=O)[C@@H](NC(=O)[C@H](Cc2c[nH]cn2)NC(=O)[C@H](CCC(=O)O)NC(=O)[C@H](CC(=O)O)NC(=O)[C@@H](NC(=O)[C@H](Cc2ccccc2)NC(C)=O)[C@@H](C)CC)C(C)C)C(=O)N[C@@H](CC(C)C)C(=O)N[C@@H](C(C)C)C(=O)N[C@@H]([C@@H](C)CC)C(=O)N1)C(N)=O` [SP-284] (Ac-FIDEHVLM[S5]LVI[S5]MALDRI-NH2; staple 9-13), the “Viability 1% FBS AVG” value in test [1] is reported as “++++ (≥30: ++++)”. For the same compound, in test [2], the “18 h Avg % max inhibition at top conc” value was “+++ (≤25 but <50: +++)” and the EC50 lay within 5 to 15 µM. For the same compound, in test [3], the 50% inhibitory concentration (IC50) was 400 to 700 nM.

For `CC[C@H](C)[C@H](NC(=O)[C@H](C)NC(C)=O)C(=O)N[C@@H](CC(=O)O)C(=O)N[C@@H](CCC(=O)O)C(=O)N[C@@H](CCC(=O)O)C(=O)N[C@H](C(=O)N[C@@H](CC(C)C)C(=O)N[C@@H](CCSC)C(=O)N[C@@]1(C)CCCC=CCCC[C@@](C)(C(=O)N[C@@H](CCSC)C(=O)N[C@@H](C)C(=O)N[C@@H](CC(C)C)C(N)=O)NC(=O)[C@H]([C@@H](C)CC)NC(=O)[C@H](C(C)C)NC(=O)[C@H](CC(C)C)NC1=O)C(C)C` [SP-217] (Ac-AIDEEVLM[S5]LVI[S5]MAL-NH2; staple 9-13), the “Viability 1% FBS AVG” value in test [1] was “++++ (≥30: ++++)”. In addition, in test [2], the “18 h Avg % max inhibition at top conc” value is “+++ (≤25 but <50: +++)” and the EC50 was over 30 µM. In test [3], the IC50 was over 700 nM.

For the compound `CCCC[C@H](NC(=O)[C@H](Cc1ccccc1)NC(=O)[C@@H](NC(=O)[C@H](C)NC(=O)[C@H](CCC(N)=O)NC(=O)[C@H](CC(=O)O)NC(=O)[C@@H](NC(=O)[C@H](Cc1ccccc1)NC(C)=O)[C@@H](C)CC)C(C)C)C(=O)N[C@@]1(C)CCCC=CCCC[C@@](C)(C(=O)N[C@@H](Cc2c[nH]cn2)C(=O)N[C@@H](C)C(=O)N[C@@H](CC(C)C)C(=O)N[C@@H](CC(C)C)C(N)=O)NC(=O)[C@H]([C@@H](C)CC)NC(=O)[C@H](C(C)C)NC(=O)[C@H](CC(C)C)NC1=O` [SP-258] (Ac-FIDQAVF[Nle][S5]LVI[S5]HALL-NH2; staple 9-13), the “Viability 1% FBS AVG” value in test [1] is given as “++ (≤5 but <15: ++)”. For the same compound, in test [2], the “18 h Avg % max inhibition at top conc” value is on record as “+++ (≤25 but <50: +++)” and the EC50 is 5 to 15 µM. In addition, the IC50 in test [3] was over 700 nM.
